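Exposure lasted 48 hours, with cells grown in 96-well plates and compounds tested at five concentrations. At the TGI there is no net growth.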
What was measured:
Test in all cases: DTP human tumour cell line panel, 48 h
[1] = test system: ACHN renal
[2] = test system: SF-539 CNS
[3] = test system: OVCAR-8 ovarian
[4] = test system: SN12C renal
[5] = test system: SK-OV-3 ovarian
[6] = test system: NCI/ADR-RES ovarian
[7] = test system: HCC-2998 colon
[8] = test system: HCT-116 colon
[9] = test system: UACC-62 melanoma
[10] = test system: HCT-15 colon
[11] = test system: SK-MEL-2 melanoma
[12] = test system: OVCAR-3 ovarian
[13] = test system: SF-295 CNS
[14] = test system: CCRF-CEM leukemia
[15] = test system: NCI-H460 lung
[16] = test system: MALME-3M melanoma
[17] = test system: U251 CNS
[18] = test system: T-47D breast
[19] = test system: BT-549 breast
[20] = test system: MCF7 breast
[21] = test system: HL-60(TB) leukemia
[22] = test system: UACC-257 melanoma
[23] = test system: RXF 393 renal
[24] = test system: HS 578T breast
[25] = test system: 786-0 renal
[26] = test system: A498 renal
[27] = test system: M14 melanoma
[28] = test system: K-562 leukemia
[29] = test system: UO-31 renal
[30] = test system: HOP-92 NSCLC
[31] = test system: LOX IMVI melanoma
[32] = test system: MDA-MB-231 breast
[33] = test system: MDA-N
[34] = test system: EKVX NSCLC
[35] = test system: HT29 colon
[36] = test system: PC-3 prostate
[37] = test system: A549 NSCLC
[38] = test system: SNB-19 CNS
[39] = test system: SW-620 colon
[40] = test system: SK-MEL-28 melanoma
[41] = test system: MDA-MB-435
[42] = test system: RPMI-8226 leukemia
[43] = test system: NCI-H226 lung
[44] = test system: SF-268 CNS
[45] = test system: OVCAR-4 ovarian
[46] = test system: SNB-75 CNS
[47] = test system: DU-145 prostate
[48] = test system: COLO 205 colon
[49] = test system: HOP-62 NSCLC
[50] = test system: SK-MEL-5 melanoma
[51] = test system: SR leukemia
[52] = test system: KM12 colon
[53] = test system: TK-10 renal
[54] = test system: CAKI-1 renal
[55] = test system: MOLT-4 leukemia
[56] = test system: OVCAR-5 ovarian
[57] = test system: NCI-H522 lung
[58] = test system: NCI-H23 lung
[59] = test system: IGROV1 ovarian
[60] = test system: LXFL 529 NSCLC
[61] = test system: SNB-78 CNS
[62] = test system: DMS 114 small cell lung
[63] = test system: XF 498 CNS
[64] = test system: KM20L2 colon
[65] = test system: M19-MEL melanoma
[66] = test system: DLD-1 colon
[67] = test system: HOP-18 NSCLC
[68] = test system: DMS 273 small cell lung

`COc1ccc(N2C(=O)C3c4[nH]c5ccc([N+](=O)[O-])cc5c4C4CCC(C(C)(C)C)CC4C3C2=O)cc1` (configuration not stated) gave a TGI [1] of 63.6 µM, a TGI [2] of over 100 µM and a TGI [3] of over 100 µM. It also gave a TGI [4] of 76.9 µM, a TGI [5] of over 100 µM and a TGI [6] of over 100 µM. It also gave a TGI [7] of over 100 µM, a TGI [8] of 23.9 µM and a TGI [9] of over 100 µM. It also gave a TGI [10] of over 100 µM, a TGI [11] of over 100 µM and a TGI [12] of 49.5 µM. It also gave a TGI [13] of over 100 µM, a TGI [14] of over 100 µM and a TGI [15] of 63.9 µM. For the same compound, the TGI [16] was over 100 µM, the TGI [17] was 90.7 µM and the TGI [18] was over 100 µM. For the same compound, the TGI [19] was over 100 µM, the TGI [20] was over 100 µM and the TGI [21] was 33.5 µM. For the same compound, the TGI [22] was over 100 µM, the TGI [23] was 9.34 µM and the TGI [24] was over 100 µM. It also gave a TGI [25] of 38 µM, a TGI [26] of 7.56 µM and a TGI [27] of over 100 µM. The TGI [28] was 7.33 µM, the TGI [29] was 51.6 µM and the TGI [30] was 45.7 µM. The TGI [31] was over 100 µM, the TGI [32] was 36.5 µM and the TGI [33] was over 100 µM. It also gave a TGI [34] of over 100 µM, a TGI [35] of 20.1 µM and a TGI [36] of over 100 µM. It also gave a TGI [37] of over 100 µM, a TGI [38] of over 100 µM and a TGI [39] of over 100 µM. For the same compound, the TGI [40] was over 100 µM, the TGI [41] was over 100 µM and the TGI [42] was 89.5 µM. It also gave a TGI [43] of 72.6 µM, a TGI [44] of over 100 µM and a TGI [45] of over 100 µM. It also gave a TGI [46] of over 100 µM, a TGI [47] of over 100 µM and a TGI [48] of 69.6 µM. For the same compound, the TGI [49] was 78.8 µM, the TGI [50] was 33.8 µM and the TGI [51] was 8.56 µM. It also gave a TGI [52] of over 100 µM, a TGI [53] of over 100 µM and a TGI [54] of over 100 µM. It also gave a TGI [55] of over 100 µM, a TGI [56] of over 100 µM and a TGI [57] of over 100 µM. The TGI [58] was 60.4 µM and the TGI [59] was over 100 µM.
For `COc1ccc2nc(-c3ccc(OCc4ccccc4)cc3)ccc2c1`, the TGI [60] was over 100 µM, the TGI [1] was over 100 µM and the TGI [2] was over 100 µM. It also gave a TGI [3] of over 100 µM, a TGI [4] of over 100 µM and a TGI [61] of over 100 µM. It also gave a TGI [5] of over 100 µM, a TGI [7] of over 100 µM and a TGI [8] of over 100 µM. It also gave a TGI [9] of over 100 µM, a TGI [12] of over 100 µM and a TGI [13] of over 100 µM. For the same compound, the TGI [14] was over 100 µM, the TGI [15] was over 100 µM and the TGI [16] was over 100 µM. It also gave a TGI [21] of over 100 µM, a TGI [22] of over 100 µM and a TGI [23] of over 100 µM. It also gave a TGI [62] of over 100 µM, a TGI [63] of over 100 µM and a TGI [25] of over 100 µM. The TGI [27] was over 100 µM, the TGI [28] was over 100 µM and the TGI [29] was over 100 µM. The TGI [30] was over 100 µM, the TGI [31] was over 100 µM and the TGI [64] was over 100 µM. It also gave a TGI [65] of over 100 µM, a TGI [34] of over 100 µM and a TGI [35] of over 100 µM. The TGI [66] was over 100 µM, the TGI [37] was over 100 µM and the TGI [38] was over 100 µM. It also gave a TGI [39] of over 100 µM, a TGI [40] of over 100 µM and a TGI [42] of over 100 µM. For the same compound, the TGI [43] was over 100 µM, the TGI [44] was over 100 µM and the TGI [45] was over 100 µM. The TGI [46] was over 100 µM, the TGI [48] was over 100 µM and the TGI [49] was over 100 µM. For the same compound, the TGI [50] was over 100 µM, the TGI [51] was over 100 µM and the TGI [52] was over 100 µM. For the same compound, the TGI [53] was over 100 µM, the TGI [55] was over 100 µM and the TGI [56] was over 100 µM. For the same compound, the TGI [57] was over 100 µM, the TGI [67] was over 100 µM and the TGI [58] was over 100 µM. It also gave a TGI [59] of over 100 µM.
Work on `Cn1cc(NC(=O)c2cc(NC(=O)CCCCCCCCCCC(=O)Nc3cc(C(=O)Nc4cc(C(=O)NCCC(=N)N)n(C)c4)n(C)c3)cn2C)cc1C(=O)NCCC(=N)N` yielded a TGI [60] of over 100 µM, a TGI [1] of over 100 µM and a TGI [2] of over 100 µM. For the same compound, the TGI [3] was 53.5 µM, the TGI [4] was over 100 µM and the TGI [61] was over 100 µM. For the same compound, the TGI [5] was over 100 µM, the TGI [7] was 73.6 µM and the TGI [8] was over 100 µM. For the same compound, the TGI [9] was over 100 µM, the TGI [10] was over 100 µM and the TGI [11] was over 100 µM. The TGI [12] was over 100 µM, the TGI [13] was over 100 µM and the TGI [14] was over 100 µM. For the same compound, the TGI [15] was over 100 µM, the TGI [17] was over 100 µM and the TGI [22] was over 100 µM. The TGI [23] was 77.5 µM, the TGI [63] was over 100 µM and the TGI [25] was over 100 µM. The TGI [27] was over 100 µM, the TGI [28] was over 100 µM and the TGI [29] was over 100 µM. It also gave a TGI [31] of over 100 µM, a TGI [64] of over 100 µM and a TGI [34] of 90.2 µM. For the same compound, the TGI [35] was over 100 µM, the TGI [66] was over 100 µM and the TGI [37] was over 100 µM. The TGI [38] was over 100 µM, the TGI [39] was 55 µM and the TGI [43] was over 100 µM. It also gave a TGI [44] of over 100 µM, a TGI [45] of over 100 µM and a TGI [46] of over 100 µM. The TGI [48] was over 100 µM, the TGI [49] was 81.3 µM and the TGI [50] was 87.8 µM. The TGI [52] was over 100 µM, the TGI [53] was 87.9 µM and the TGI [54] was over 100 µM. It also gave a TGI [55] of over 100 µM, a TGI [68] of over 100 µM and a TGI [56] of over 100 µM. It also gave a TGI [57] of over 100 µM, a TGI [67] of over 100 µM and a TGI [58] of over 100 µM. For the same compound, the TGI [59] was over 100 µM.
In the case of `CCOc1ccc(NC(=O)CC2Sc3ccccc3NC2=O)cc1` (configuration not stated), the TGI [60] is reported as over 100 µM, the TGI [1] is reported as over 100 µM and the TGI [2] is reported as over 100 µM. The TGI [3] was 42.9 µM, the TGI [4] was over 100 µM and the TGI [61] was over 100 µM. The TGI [5] was over 100 µM, the TGI [7] was over 100 µM and the TGI [8] was 76.2 µM. For the same compound, the TGI [9] was over 100 µM, the TGI [10] was over 100 µM and the TGI [12] was over 100 µM. The TGI [13] was over 100 µM, the TGI [14] was over 100 µM and the TGI [15] was over 100 µM. It also gave a TGI [16] of over 100 µM, a TGI [17] of over 100 µM and a TGI [21] of over 100 µM. For the same compound, the TGI [22] was over 100 µM, the TGI [62] was over 100 µM and the TGI [25] was 39.3 µM. For the same compound, the TGI [26] was over 100 µM, the TGI [27] was over 100 µM and the TGI [28] was over 100 µM. The TGI [29] was over 100 µM, the TGI [64] was over 100 µM and the TGI [65] was over 100 µM. It also gave a TGI [34] of over 100 µM, a TGI [35] of over 100 µM and a TGI [66] of over 100 µM. It also gave a TGI [37] of over 100 µM, a TGI [38] of over 100 µM and a TGI [39] of 33.5 µM. It also gave a TGI [40] of over 100 µM, a TGI [42] of over 100 µM and a TGI [43] of over 100 µM. The TGI [44] was over 100 µM, the TGI [45] was 39.8 µM and the TGI [46] was 95 µM. The TGI [48] was over 100 µM, the TGI [49] was over 100 µM and the TGI [50] was over 100 µM. For the same compound, the TGI [52] was 95.2 µM, the TGI [53] was over 100 µM and the TGI [54] was over 100 µM. It also gave a TGI [55] of over 100 µM, a TGI [68] of over 100 µM and a TGI [56] of over 100 µM. For the same compound, the TGI [57] was over 100 µM, the TGI [67] was 54 µM and the TGI [58] was over 100 µM. For the same compound, the TGI [59] was over 100 µM.
